Consider 1 compound from ChEMBL document CHEMBL1158972, “New cytotoxic beta-carboline alkaloids from the marine bryozoan, Cribricellina cribraria” (J Nat Prod, 1991).

Experiment [1] deals with Bacillus subtilis. The experiment is described as follows: Antimicrobial activity against Bacillus subtilis at 30 ug. In kind it is functional. The following applies: read-out: IZ.
Experiment [2] concerns Candida albicans. Kind of experiment: Antimicrobial activity against Candida albicans at 30 ug. In kind it is functional. The following applies: read-out: IZ.

As for `O=C(N[C@H](CO)[C@H](O)c1ccc([N+](=O)[O-])cc1)C(Cl)Cl` [CHLORAMPHENICOL], the zone of inhibition at 30 µg/disc was 12 mm in experiment [1] and 8 mm in experiment [2].
